Assay results: the supplement of paper PMC10307832

Columns and labels:
Assay in all cases: relative viability (nuclei count vs DMSO), 5 days (fraction); higher = more cells survive
VX-11e = compound: CC1=CN=C(N=C1C2=CNC(=C2)C(=O)N[C@H](CO)C3=CC(=CC=C3)Cl)NC4=C(C=C(C=C4)F)Cl [VX-11e]
Outline: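 Viability was defined as treated-well nuclei divided by vehicle-well nuclei, with the median taken over replicate plates. Cells from lung cancer lines sat overnight at 37 °C in 1536-well plates, received five √10-spaced library-drug doses by pinning on vehicle-anchored plates, and grew 5 days without medium change before one-step fixation, permeabilisation and Hoechst staining, 4× imaging and MetaXpress nuclear counts. Only plates with control CV under 25% and at least one doubling were kept.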

VX-11e + Phenformin = compound: CC1=CN=C(N=C1C2=CNC(=C2)C(=O)N[C@H](CO)C3=CC(=CC=C3)Cl)NC4=C(C=C(C=C4)F)Cl [VX-11e] + N=C(N)NC(=N)NCCc1ccccc1 [Phenformin] (partner 250 µM)
Outline: (§1)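 Lung cancer cell lines in 1536-well plates got either a single drug or a fixed anchor-drug dose together with five library-drug doses (not always all listed) in √10 steps, by pin tool, on the day after seeding. Nuclei were counted after 5 days, and relative viability is the treated-to-vehicle ratio of nuclei counts. Values are medians of duplicate plates.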

VX-11e + Trametinib = compound: CC1=CN=C(N=C1C2=CNC(=C2)C(=O)N[C@H](CO)C3=CC(=CC=C3)Cl)NC4=C(C=C(C=C4)F)Cl [VX-11e] + CC(=O)Nc1cccc(-n2c(=O)n(C3CC3)c(=O)c3c(Nc4ccc(I)cc4F)n(C)c(=O)c(C)c32)c1 [Trametinib] (partner 0.02 µM)
Outline: as §1

VX-11e + OSI-027 = compound: CC1=CN=C(N=C1C2=CNC(=C2)C(=O)N[C@H](CO)C3=CC(=CC=C3)Cl)NC4=C(C=C(C=C4)F)Cl [VX-11e] + COc1cccc2cc(-c3nc([C@H]4CC[C@H](C(=O)O)CC4)n4ncnc(N)c34)[nH]c12 [OSI-027] (partner 0.5 µM)
Outline: as §1

| Cell Line | relative viability (VX-11e; 0.04 µM) | relative viability (VX-11e; 0.1265 µM) | relative viability (VX-11e; 0.4 µM) | relative viability (VX-11e; 1.265 µM) | relative viability (VX-11e; 4 µM) | relative viability (VX-11e + Phenformin; first compound 0.04 µM) | relative viability (VX-11e + Phenformin; first compound 0.1265 µM) | relative viability (VX-11e + Phenformin; first compound 0.4 µM) | relative viability (VX-11e + Phenformin; first compound 1.265 µM) | relative viability (VX-11e + Phenformin; first compound 4 µM) | relative viability (VX-11e + Trametinib; first compound 0.04 µM) | relative viability (VX-11e + Trametinib; first compound 0.1265 µM) | relative viability (VX-11e + Trametinib; first compound 1.265 µM) | relative viability (VX-11e + Trametinib; first compound 4 µM) | relative viability (VX-11e + OSI-027; first compound 0.04 µM) | relative viability (VX-11e + OSI-027; first compound 0.1265 µM) | relative viability (VX-11e + OSI-027; first compound 0.4 µM) | relative viability (VX-11e + OSI-027; first compound 1.265 µM) | relative viability (VX-11e + OSI-027; first compound 4 µM) | relative viability (VX-11e + Trametinib; first compound 0.4 µM) |
| --- | --- | --- | --- | --- | --- | --- | --- | --- | --- | --- | --- | --- | --- | --- | --- | --- | --- | --- | --- | --- |
| LXF-289 | 1.06 | 0.977 | 0.773 | 0.93 | 0.672 | 0.578 | 0.5 | 0.16 | 0.463 | 0.365 | 0.729 | 0.652 | 0.626 | 0.498 | 0.686 | 0.58 | 0.174 | 0.517 | 0.358 |  |
| NCI-H23 | 0.82 | 0.854 | 0.198 | 0.411 | 0.271 | 0.682 | 0.701 |  | 0.666 | 0.436 | 0.276 | 0.339 | 0.223 | 0.219 | 0.368 | 0.411 |  | 0.271 | 0.173 | 0.287 |
| NCI-H322M | 0.814 | 0.517 | 0.728 | 0.727 | 0.605 | 0.691 | 0.507 | 0.7 | 0.661 | 0.534 | 0.468 | 0.484 | 0.586 | 0.46 | 0.535 | 0.401 | 0.319 | 0.417 | 0.364 | 0.426 |
| NCI-H358 | 1.01 | 0.835 | 0.595 | 0.805 | 0.266 | 0.276 | 0.288 | 0.07 | 0.263 | 0.142 | 0.0982 | 0.135 | 0.121 | 0.112 | 0.734 | 0.642 | 0.25 | 0.382 | 0.132 | 0.0751 |
| NCI-H441 | 1.19 | 1.01 |  | 1.04 | 0.676 | 0.858 | 0.837 |  | 0.732 | 0.49 | 0.448 | 0.485 | 0.278 | 0.325 | 0.519 | 0.502 |  | 0.518 | 0.417 |  |
| NCI-H460 | 1.03 | 0.972 | 0.858 | 0.886 | 0.342 | 0.588 | 0.471 | 0.127 | 0.174 | 0.0711 | 0.134 | 0.161 | 0.0437 | 0.0311 | 0.589 | 0.483 | 0.181 | 0.0819 | 0.0249 | 0.0116 |
| NCI-H520 | 0.872 | 1.06 | 0.874 | 1.25 | 0.898 | 0.505 | 0.483 | 0.449 | 0.752 | 0.479 | 0.647 | 0.668 | 0.481 | 0.22 | 0.247 | 0.25 | 0.203 | 0.217 | 0.313 | 0.528 |
| NCI-H522 | 0.796 | 0.876 | 0.738 | 0.614 | 0.666 | 0.609 | 0.621 | 0.558 | 0.48 | 0.656 | 0.684 | 0.773 | 0.645 | 0.589 | 0.615 | 0.683 | 0.556 | 0.613 | 0.572 | 0.618 |
| NCI-H596 | 0.916 | 0.901 | 0.943 | 0.525 | 0.578 | 0.648 | 0.791 | 0.8 | 0.369 | 0.599 | 0.754 | 0.751 | 0.645 | 0.556 | 0.518 | 0.691 | 0.525 | 0.349 | 0.407 | 0.712 |
| NCI-H647 | 0.814 | 0.884 | 0.494 | 0.652 | 0.426 | 0.677 | 0.442 | 0.249 | 0.266 | 0.196 | 0.51 | 0.358 | 0.163 | 0.217 | 0.664 | 0.456 | 0.496 | 0.41 | 0.353 | 0.211 |
| NCI-H650 | 0.781 | 0.925 | 1.04 | 0.872 | 0.974 | 0.496 | 0.441 | 0.491 | 0.442 | 0.446 | 1.04 | 0.958 | 0.64 | 0.381 | 0.531 | 0.616 | 0.75 | 0.559 | 0.518 | 0.994 |
| NCI-H661 | 1.01 | 1.02 | 0.947 | 1.04 | 0.724 | 0.242 | 0.324 | 0.275 | 0.293 | 0.27 | 0.568 | 0.542 | 0.506 | 0.376 | 0.727 | 0.632 | 0.751 | 0.625 | 0.396 | 0.476 |
| NCI-H727 | 0.784 | 0.933 | 0.687 | 0.551 | 0.347 | 0.439 | 0.475 | 0.451 | 0.359 | 0.353 | 0.415 | 0.374 | 0.365 | 0.346 | 0.353 | 0.678 | 0.522 | 0.447 | 0.284 | 0.379 |
| NCI-H838 | 0.965 | 0.913 | 0.842 | 0.852 | 0.736 | 0.539 | 0.604 | 0.17 | 0.445 | 0.379 | 0.457 | 0.505 | 0.484 | 0.455 | 0.356 | 0.413 | 0.3 | 0.347 | 0.262 | 0.513 |
| NCI-H1355 | 0.766 | 0.842 | 0.771 | 0.756 | 0.437 | 0.417 | 0.435 | 0.34 | 0.379 | 0.348 | 0.406 | 0.411 | 0.33 | 0.221 | 0.302 | 0.311 | 0.197 | 0.256 | 0.224 | 0.372 |
| NCI-H1395 | 0.781 | 0.846 | 0.586 | 0.717 | 0.611 | 0.42 | 0.405 | 0.453 | 0.461 | 0.398 | 1 | 0.942 | 0.895 | 0.617 | 0.572 | 0.539 | 0.57 | 0.621 | 0.447 |  |
